As usually defined, the logP is the decadic logarithm of the partition coefficient of the neutral form, usually between octanol and water. High values mean a more lipophilic compound, low ones a more hydrophilic compound. Consider `CCN(CC)C(=O)CC1CCCCC1`, for which the logP was found to be 3.12.

In turn, `CN(C)C(=O)CC1CCCCC1` gave a logP of 2.19.

For the molecule `Cc1ccc(C(=O)N(C(C)C)C(C)C)cc1`, the logP was found to be 2.5.

With `CCNC(=O)c1ccc(OC)cc1`, the logP worked out at 1.14.

`CCNC(=O)c1ccccc1OCC` returned a logP of 2.4.

The molecule `CCN(CC)C(=O)c1ccc(C)cc1` registered a logP of 2.38. This logP and that of the molecule before are within 0.2 log units of each other.

`CN(C)C(=O)Cc1ccccc1` displayed a logP of 1.48.

Turning to `CCNC(=O)Cc1ccccc1`, the logP came out at 1.

Molecule `O=C(c1ccccc1)N1CCCCC1` gave a logP of 2.2.

In turn, `Cc1ccc(C(=O)N2CCCCC2)cc1` yielded a logP of 2.8.

For the molecule `Cc1cccc(C(=O)N(C)C)c1`, the lipophilicity (logP) is 1.6.

With `Cc1ccc(C(=O)N(C)C)cc1`, the logP worked out at 1.72.

The molecule `CCOc1ccccc1C(=O)N1CCCCC1` returned a logP of 2.6.

The molecule `COc1ccc(C(=O)N(C(C)C)C(C)C)cc1` gave a logP of 2.8.

`CC(C)N(C(=O)c1ccccc1)C(C)C` yielded a logP of 2.5.

As for `O=C(c1ccccc1Cl)N1CCCCC1`, the logP stood at 2.8.

`Cc1cccc(C(=O)N2CCCCC2)c1` yielded a logP of 2.6.

Turning to `CCN(CC)C(=O)c1ccccc1Cl`, the logP amounted to 2.1.

In turn, `O=C(CC1CCCCC1)N1CCCCC1` registered a logP of 3.2.

As for `COc1ccc(C(=O)N2CCCCC2)cc1`, the logP amounted to 2.4.

With `CCNC(=O)CC1CCCCC1`, the logP was 2.28.

In turn, `Cc1cccc(C(=O)N(C(C)C)C(C)C)c1` had a logP of 3.

`CCNC(=O)c1ccc(C)cc1` showed a logP of 1.38.

Turning to `CC(C)N(C(=O)Cc1ccccc1)C(C)C`, the log partition coefficient (logP) was found to be 3.1.

`CCOc1ccccc1C(=O)N(CC)CC` came in with a logP of 2.5.

In turn, `CCOc1ccccc1C(=O)N(C(C)C)C(C)C` had a logP of 3.

`CN(C)C(=O)c1ccccc1Cl` came in with a logP of 1.54.

For the molecule `CC(C)N(C(=O)c1ccccc1Cl)C(C)C`, the logP amounted to 3.

The molecule `CCNC(=O)c1cccc(C)c1` showed a logP of 1.32.

`O=C(Cc1ccccc1)N1CCCCC1` came in with a logP of 2.44.

The molecule `CCN(CC)C(=O)Cc1ccccc1` had a logP of 2.4. The logP values of the last two molecules are within 0.2 log units of each other.

The values are drawn from the OPERA property sets (Mansouri et al. 2018).
